Where two headings read alike, the source gives them in different places.
Experiments:
[1] = test system: GSK-3α (Tyr276) / GSK-3β (Tyr216); assay: Tyrosine phosphorylation of GSK-3 in SH-SY5Y cells (Western blot); format: cell-based, human; settings: 1 μM, 12 hr
From the text: GSK-3α and GSK-3β activity is enhanced by the phosphorylation of a specific tyrosine residue (Tyr276 and Tyr216, respectively) (Hughes et al. (1993) EMBO J. 12: 803-808; Dajani et al. (2003) EMBO J. 22: 494-501). The tyrosine kinase responsible for this phosphorylation in mammals is unknown, but there is some evidence that it indirectly depends on GSK-3 activity (Bhat et al. (2000) Proc. Natl. Acad. Sci. U.S.A. 97: 11074-11079; Shaw et al. (1997) FEBS Lett. 416: 307-311). […] SH-SY5Y cells were exposed to IO, MeIO, BIO and MeBIO for 12 hr and the phosphorylation of Tyr276 (GSK-3α) and Tyr216 (GSK-3β) was estimated by Western blotting with phospho-specific antibodies. […] This was accompanied by an increased level in total GSK-3β, total β-catenin, and dephospho-&catenin.

Xenopus laevis embryos = assay: Maternal Wnt pathway activation in Xenopus laevis embryos (phenotype, RT-PCR of animal caps); format: in vivo; settings: for embryo phenotype (anteriorization): BIO 5-50 μM, MeBIO 50 μM, LiCl 0.3 M, treated before stage 8, tadpole stage
Experimental: Xenopus laevis embryos obtained by in vitro fertilization were cultured in 0.1×MMR and staged (Nieuwkoop & Faber (1967) Normal table of Xenopus Laevis (North Holland Publishing Co, Amsterdam, The Netherlands)). […] For experiments with BIO, the reagent was added to the indicated final concentrations at the 4 cell stage and washed away at stage 8. Embryos were subsequently allowed to develop to tadpole stage. RNA injections were performed at 2-4 cell stage with the indicated amounts of in vitro transcribed RNA in a […] volume. Animal caps were dissected at blastula (stage 9) and cultured to neurula (stage 18) for RT-PCR analysis-. The RNA expression vectors were pCS2+DN Xtcf-3, encoding amino acids 88-553 of Xtcf-3 (Vonica et al. (2000) Dev. Biol. 217: 230-243), MTPA2 (Zeng et al. […] RT-PCR was performed as previously described (Chang et al. (1997) Development 124: 827-837), with the following oligonucleotides: for ODC sense [NT] and antisense 5° [NT] 3'; for nrp1 sense [NT] and antisense [NT]; for XAG1 sense [NT] and antisense 5° [NT] 3'; for en2 sense 5° [NT] 3' and antisense [NT]; for Xhoxb9 sense [NT] and antisense [NT]; for chordin sense 5° [NT] 3' and antisense [NT]. Phenotypes of embryos treated with BIO or LiCl were compared (FIG. 8B-G). […] The Wnt pathway can ectopically induce dorsal genes, like the direct Wnt target siamois ([…] et al. (1996) Development 122: 3055-3065), and the Spemann organizer marker and siamois target chordin (Kessler (1997) Proc. Natl. Acad. Sci. U.S.A. 94: 13017-22). […] Another outcome of ectopic Wnt pathway activation in Xenopus is the indirect induction of neural tissue in animal cap explants (Baker et al. (1999) Genes Dev. 13: 3149-3159). Explants from embryos treated with LiCl (FIG. 8I, lanes 4, 5), BIO (lanes 6, 7), or injected with RNA for the neuralizing factor noggin (lane 3), were compared by RT-PCR for various neural and anterior markers.

AhR [2] = assay: AhR nuclear translocation in Hepa-1 and ARNT mutant cells (immunofluorescence); format: cell-based, mouse; settings: 25 μM, 90 min, Hepa-1 wild-type and ARNT mutant cells
[3] = test system: 5L (AhR +/+) hepatoma cells; assay: Cell viability MTT assay, 5L cells; format: cell-based, mouse; settings: range of concentrations, 24 and 48 hr
[4] = test system: BP8 (AhR −/−) hepatoma cells; assay: Cell viability MTT assay, BP8 cells; format: cell-based, mouse; settings: range of concentrations, 24 and 48 hr
[5] = test system: 5L (AhR +/+) hepatoma cells; assay: FACS cell cycle analysis, 5L cells; format: cell-based, mouse; settings: 10 μM indirubins or 100 nM TCDD, 24 hr
[6] = test system: p27^KIP1 in 5L (AhR +/+) cells; assay: p27KIP1 expression by Western blotting, 5L cells; format: cell-based, mouse; settings: 10 μM indirubins or 0.1 μM TCDD, 24 hr
[7] = Solubility (qualitative remark); settings: relative to parent indirubins / 3′-oximes
GSK-3 [8] = assay: β-catenin phosphorylation on GSK-3 specific sites in COS-1 cells (Western blot); settings: 5 μM indirubins or 20 mM LiCl, 24 hrs
GSK-3 [9] = assay: β-catenin stabilization in AhR- or ARNT-deficient Hepa cell lines (Western blot); settings: 10 μM BIO, 50 μM MeBIO, 24 hrs
CDK5/p35 = CDK5/p35 (Homo sapiens, UniProt Q00535); design: made in house; settings: Hoessel et al. (1999); cited from earlier work
GSK-3α/β = GSK-3α/β kinase assay (GS-1 peptide, 15 μM ATP); format: biochemical, porcine
CDK1/cyclin B = CDK1/cyclin B kinase assay (histone H1, 15 μM ATP); format: biochemical, starfish (Marthasterias glacialis)
CDK5/p25 = CDK5/p25 (Homo sapiens, UniProt Q00535); assay: CDK5/p25 kinase assay (histone H1, 15 μM ATP); format: biochemical, mammalian; settings: read-out: IC50 CDK5/p25
[10] = test system: BP8 (AhR −/−) hepatoma cells; assay: FACS cell cycle analysis, BP8 cells; format: cell-based, mouse; settings: 10 μM indirubins or 100 nM TCDD, 24 hr
Experimental: Flow cytometry analysis (Coulter EPIX XL2, Beckman, Calif., USA) of cellular DNA content was performed on ethanol-fixed cell suspensions after ribonuclease A III treatment (Sigma) and propidium iodide (Sigma) staining, as previously described (French et al. (1985) Cytometry 6: 47-53). Percentages of cells in G0/G1, S and G2/M phases of cell cycle were then calculated on the basis of DNA distribution histograms provided by the software manufacturer.
Both 5L and BP8 cell lines were treated with 10 μM IO, MeIO, BIO, MeBIO or 100 nM TCDD for 24 hr.

AhR [11] = target: AhR (Homo sapiens, UniProt P35869)
AhR [12] = target: T1, AhR (Mus musculus, UniProt P30561); settings: read-out: EC50 AhR (hepatoma cell line); Table 4; EGFP at 24 hours
T1 sequence (P30561 1-848): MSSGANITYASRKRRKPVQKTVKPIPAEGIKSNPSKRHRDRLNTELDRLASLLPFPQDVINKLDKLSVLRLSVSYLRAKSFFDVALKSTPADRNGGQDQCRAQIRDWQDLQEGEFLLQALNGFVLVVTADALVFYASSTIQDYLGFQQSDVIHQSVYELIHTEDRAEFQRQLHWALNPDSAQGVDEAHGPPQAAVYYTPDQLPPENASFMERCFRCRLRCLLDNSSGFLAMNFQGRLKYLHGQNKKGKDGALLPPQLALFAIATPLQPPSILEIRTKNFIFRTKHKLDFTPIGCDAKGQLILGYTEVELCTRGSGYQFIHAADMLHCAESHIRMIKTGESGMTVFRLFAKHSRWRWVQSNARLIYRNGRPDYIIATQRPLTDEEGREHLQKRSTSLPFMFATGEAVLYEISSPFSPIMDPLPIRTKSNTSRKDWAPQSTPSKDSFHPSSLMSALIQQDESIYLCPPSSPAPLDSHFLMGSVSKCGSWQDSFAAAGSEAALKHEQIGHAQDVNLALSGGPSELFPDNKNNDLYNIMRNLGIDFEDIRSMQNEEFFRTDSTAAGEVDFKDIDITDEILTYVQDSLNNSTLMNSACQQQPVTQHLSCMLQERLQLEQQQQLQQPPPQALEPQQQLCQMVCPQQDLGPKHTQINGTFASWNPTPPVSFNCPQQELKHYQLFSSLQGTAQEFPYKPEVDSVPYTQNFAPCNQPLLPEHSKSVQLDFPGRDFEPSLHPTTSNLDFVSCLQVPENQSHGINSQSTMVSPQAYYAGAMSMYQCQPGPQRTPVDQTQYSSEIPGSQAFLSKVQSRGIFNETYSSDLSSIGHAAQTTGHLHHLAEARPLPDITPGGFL

Chain of CDK5/p25 (Q00535 whole entry, species assumed): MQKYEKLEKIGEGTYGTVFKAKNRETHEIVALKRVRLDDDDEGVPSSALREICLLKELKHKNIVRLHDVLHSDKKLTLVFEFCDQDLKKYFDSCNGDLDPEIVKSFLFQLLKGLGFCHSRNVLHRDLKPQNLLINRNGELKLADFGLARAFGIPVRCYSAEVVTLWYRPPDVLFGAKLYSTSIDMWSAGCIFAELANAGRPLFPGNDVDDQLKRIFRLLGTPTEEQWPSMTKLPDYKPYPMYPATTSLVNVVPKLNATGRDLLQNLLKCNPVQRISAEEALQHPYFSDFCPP
Chain of CDK5/p25 (Q15078 99-307 partner limits assumed, species assumed): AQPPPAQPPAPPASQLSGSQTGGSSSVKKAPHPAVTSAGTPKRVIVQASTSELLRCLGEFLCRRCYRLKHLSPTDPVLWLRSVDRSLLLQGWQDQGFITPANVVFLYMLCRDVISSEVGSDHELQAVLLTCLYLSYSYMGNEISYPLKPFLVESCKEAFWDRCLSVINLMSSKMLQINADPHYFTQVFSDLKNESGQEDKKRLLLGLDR
Chain of AhR (Homo sapiens, UniProt P35869) (P35869 11-848): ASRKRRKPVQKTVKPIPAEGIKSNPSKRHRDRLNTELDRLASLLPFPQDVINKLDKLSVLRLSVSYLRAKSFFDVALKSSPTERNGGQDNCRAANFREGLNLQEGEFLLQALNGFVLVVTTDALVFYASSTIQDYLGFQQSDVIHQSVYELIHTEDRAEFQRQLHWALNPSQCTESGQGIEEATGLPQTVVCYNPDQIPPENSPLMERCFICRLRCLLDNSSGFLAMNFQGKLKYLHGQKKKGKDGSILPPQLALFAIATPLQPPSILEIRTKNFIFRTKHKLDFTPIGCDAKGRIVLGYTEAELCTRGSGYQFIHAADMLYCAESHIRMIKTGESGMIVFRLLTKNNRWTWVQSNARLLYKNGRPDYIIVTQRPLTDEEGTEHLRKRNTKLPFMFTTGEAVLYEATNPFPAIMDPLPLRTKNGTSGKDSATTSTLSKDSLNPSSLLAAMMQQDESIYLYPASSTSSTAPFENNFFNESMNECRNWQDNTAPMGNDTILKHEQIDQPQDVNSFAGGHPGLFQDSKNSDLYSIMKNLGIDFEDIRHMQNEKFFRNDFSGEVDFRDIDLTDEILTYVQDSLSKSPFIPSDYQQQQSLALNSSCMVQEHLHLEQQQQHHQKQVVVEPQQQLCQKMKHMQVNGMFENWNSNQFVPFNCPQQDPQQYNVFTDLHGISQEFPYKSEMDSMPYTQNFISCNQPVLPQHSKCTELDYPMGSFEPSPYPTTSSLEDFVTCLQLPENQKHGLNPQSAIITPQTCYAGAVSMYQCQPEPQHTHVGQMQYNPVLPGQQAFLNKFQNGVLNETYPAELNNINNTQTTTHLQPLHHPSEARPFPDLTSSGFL
Chain of AhR (Homo sapiens, UniProt P35869) (P27540 whole entry partner): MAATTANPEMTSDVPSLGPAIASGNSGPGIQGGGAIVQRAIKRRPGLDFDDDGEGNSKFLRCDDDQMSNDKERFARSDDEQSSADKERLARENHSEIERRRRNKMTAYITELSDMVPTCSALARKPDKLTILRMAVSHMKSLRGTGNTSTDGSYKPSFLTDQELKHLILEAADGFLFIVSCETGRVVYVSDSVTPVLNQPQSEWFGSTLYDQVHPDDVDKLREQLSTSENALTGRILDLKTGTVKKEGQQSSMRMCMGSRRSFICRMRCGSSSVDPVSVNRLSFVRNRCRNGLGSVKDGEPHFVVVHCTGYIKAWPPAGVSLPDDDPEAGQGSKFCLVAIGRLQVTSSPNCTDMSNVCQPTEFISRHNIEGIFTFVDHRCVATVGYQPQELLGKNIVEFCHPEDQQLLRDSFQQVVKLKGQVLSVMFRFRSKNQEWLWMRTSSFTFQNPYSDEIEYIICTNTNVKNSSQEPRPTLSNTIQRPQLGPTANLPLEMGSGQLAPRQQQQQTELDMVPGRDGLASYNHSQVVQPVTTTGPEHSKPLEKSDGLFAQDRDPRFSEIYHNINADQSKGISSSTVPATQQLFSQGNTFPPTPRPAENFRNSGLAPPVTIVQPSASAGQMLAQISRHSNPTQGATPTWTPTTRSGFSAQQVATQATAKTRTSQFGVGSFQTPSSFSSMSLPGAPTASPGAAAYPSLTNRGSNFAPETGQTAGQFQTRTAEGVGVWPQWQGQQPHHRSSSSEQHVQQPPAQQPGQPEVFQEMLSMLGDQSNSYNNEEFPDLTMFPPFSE
Chain of CDK5/p35 (Q00535 whole entry, species assumed): as the sequence (Q00535 whole entry, species assumed) above
Chain of CDK5/p35 (Q15078 whole entry partner, species assumed): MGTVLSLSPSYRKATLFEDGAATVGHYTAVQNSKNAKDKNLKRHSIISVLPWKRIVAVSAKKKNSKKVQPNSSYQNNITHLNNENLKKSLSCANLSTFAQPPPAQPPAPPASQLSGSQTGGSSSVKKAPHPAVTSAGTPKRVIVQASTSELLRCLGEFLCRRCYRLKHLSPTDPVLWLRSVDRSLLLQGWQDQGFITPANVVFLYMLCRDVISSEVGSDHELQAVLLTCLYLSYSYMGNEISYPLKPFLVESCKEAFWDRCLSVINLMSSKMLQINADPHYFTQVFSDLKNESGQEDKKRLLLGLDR

O=C1Nc2cc(Br)ccc2/C1=C1/Nc2ccccc2/C1=N\O [7a]
level of tyrosine phosphorylation of both GSK-3 isoforms [1]: dramatically reduced | embryo phenotype (anteriorization) (Xenopus laevis embryos): phenocopies the LiCl effect in a dose-dependent manner | induction of siamois and chordin in animal cap explants (RT-PCR) (Xenopus laevis embryos; Li+ 0.3 M, BIO 50 μM): shows induction of both genes | effect on anterior markers otx2 and xag1 in animal cap explants (RT-PCR) (Xenopus laevis embryos; even at the lowest concentration tested (5 μM)): strongest effect on anterior markers | nuclear translocation of AhR (AhR [2]): triggered ARNT-independent nuclear redistribution of AhR | survival of 5L cells (MTT) [3]: equally sensitive to IO and BIO | survival of BP8 cells (MTT) [4]: equally sensitive to IO and BIO | accumulation of 5L cells in G1 phase [5]: modest (but detectable) | p27^KIP1 expression in 5L cells [6]: modest, but detectable increase | solubility (in words) [7]: increased solubility | unphosphorylated β-catenin level (GSK-3 [8]): major increase | β-catenin stabilization (GSK-3 [9]): triggered a robust β-catenin stabilization in both cell lines

O=C1Nc2ccc(S(=O)(=O)O)cc2/C1=C1/Nc2ccccc2C1=O [I5S, indirubin-5-sulphonate]
IC50 (CDK5/p35): 0.06 µM

CN1C(=O)C(=C2Nc3ccccc3C2=NO)c2ccc(Br)cc21 [13c, 6-Bromo-1-methylindirubin-3′-oxime]
IC50 (GSK-3α/β; Table 1, read-out: IC50 GSK-3 α/β): 44 µM | IC50 (GSK-3α/β; Table 4, read-out: IC50 GSK-3): 44 µM | IC50 (GSK-3α/β; Table 5, read-out: IC50 GSK-3α/β): > 100 µM | IC50 (CDK1/cyclin B; Table 4, read-out: IC50 CDK1/cycin B): 92 µM | IC50 (CDK1/cyclin B; Table 5, read-out: IC50 CDK1/cyclin B): 92 µM | IC50 (CDK5/p25; Table 1): > 100 µM | IC50 (CDK5/p25; Table 5): > 100 µM | level of tyrosine phosphorylation of both GSK-3 isoforms [1]: None of these changes were observed | embryo phenotype (anteriorization) (Xenopus laevis embryos): remains without effect | nuclear translocation of AhR (AhR [2]): caused redistribution of AhR to the nucleus | survival of 5L cells (MTT) [3]: apparently not affected | survival of BP8 cells (MTT) [4]: apparently not affected | accumulation of 5L cells in G1 phase [5]: very striking accumulation | accumulation of BP8 cells in G1 phase [10]: but not of AhR −/− cells (BP8) | p27^KIP1 expression in 5L cells [6]: very effective p27^KIP1 inducers | EC50 (AhR [11]): 0.02 µM | EC50 (AhR [12]): 0.093 µM | unphosphorylated β-catenin level (GSK-3 [8]): neither the kinase-inactive MeBIO nor IO, led to a major increase | β-catenin stabilization (GSK-3 [9]): inactive

Source: patent US20070276025A1, “Indirubin-Type Compounds, Compositions, and Methods for Their Use” (priority 2003, published 2007)
